{
  "source": "patent US20170209499A1",
  "about": "“Propolis and Extracts Thereof for the Treatment of Skin Cancers and Improvement of Skin Health” (Manuka Health New Zealand Limited, priority 2014, published 2017)",
  "test_system": "human melanoma cell line A-2058",
  "assay": "MTT cell proliferation assay, human melanoma cell line A-2058",
  "format": "cell-based",
  "settings": "for Mean OD: MTT Optical Density at 570 nm",
  "text": "This example describes the in vitro bioassay used for determining the anti-proliferative activity of test compounds and cyclodextrin-encapsulated propolis complexes against human skin cancer cell lines. The present example tests anti-proliferative efficacy against the human melanoma cell line, A-2058. The cyclodextrin-encapsulated propolis complexes tested are those described in Example 1. The NZ propolis was the same propolis used to manufacture the cyclodextrin complexes CD1-CD3. The Brazilian Green propolis was the same propolis used to manufacture the cyclodextrin complex CD4. The test samples were dissolved in 15% Ethanol (EtOH)/HBSS to make a working solution, which was then diluted 10 times to give a final concentration in the cells of 50 μg/ml unless indicated otherwise.\nThe three human skin cancer cell lines were: • 1) Human Melanoma cell line (A-2058). • 2) Human Epidermoid (Squamous) Carcinoma cell line (A-431). • 3) Human Basal Cell Carcinoma cell line (TE 354.T).\nThe cell lines were revived from cryostorage and cultured in the presence of the test and reference samples. An MIT assay was then performed on the cultures to determine the effect of the samples on the cell viability and proliferation. The percentage standard error of the mean was assessed and extreme outliers were removed if the SEM%>15. Preliminary statistical significance was assessed with an independent Student t-test at α<0.05 (with and without outliers). The methodology was based on the procedures reported by: • Ahn, N G, Campbell J S (1993). […] Proc Natl Acad Sci. 90: 5143-5147. • Galan-Cobo, A et al (2014). Functional inhibition of aquaporin-3 with a gold-based compound induces blockage of cell proliferation. J Cellul. Physiol. 229: 1787-1801. • Roomi, M W, Kalinovsky, J et al (2013) Effect of a nutrient mixture on matrix metalloproteinase-9 dimers in various human cancer cell lines. Inter 3 Oncol. 44: 936-942. • Huang, H C, Lin, M K et al (2013). Cardenolides and bufadienolide glycosides from Kalanchoe tubiflora and evaluation of cytotoxicity. Planta Medica. 79: 1362-1369. • Tilli, C M L J, Stavast-Kooy, A J W et al (2003). The garlic-derived organosulfur component ajoene decreases basal cell carcinoma tumor size by inducing apoptosis. Arch Dermatol Res. 295: 117-123.\n• 1. Human melanoma cell line (A-2058, ATCC CRL11147) was obtained from ATCC, Bethesda, Md., USA. • 2. Human squamous (epidermoid) carcinoma cell line (A-431, ATCC CRL1555) was obtained from ATCC, Bethesda, Md. USA. • 3. Human basal cell carcinoma cell line (TE 354.T, ATCC CRL7762) was obtained from ATCC, Bethesda, Md., USA. • 4. Dulbecco's Modified Eagle's Medium (DMEM) was obtained from GIBCO (12100-038). 10% Foetal Bovine Serum (FBS), 100 U/ml Penicillin and […] Streptomycin were added before use. • 5. Penicillin-streptomycin solution, stored at −20° C. consisting of 10000 units/ml penicillin and 10 mg/ml streptomycin in 0.9% NaCl was obtained from Sigma (#P-0781). • 6. Trypsin-EDTA solution consisting of 0.25% Trypsin/EDTA was obtained from Invitrogen (#15400054). • 7. Phosphate buffered saline (PBS) was prepared in-house. • 8. Hanks Balanced Salt Solution (HBSS), stored at 4° C. was obtained from GIBCO (#14185-052). • 9. Foetal Bovine Serum (FBS) stored at −20° C. was obtained from GIBCO (#10091-148). • 10. MTT Reagent, 100 mg/vial, was obtained from Sigma (M-2128) and then dissolved in PBS at 10 mg/ml and stored at −20° C. A 5 mg/ml MTT solution was prepared in PBS and stored at 4° C. as the working solution. • 11. MU lysis buffer: 10% sodium dodecyl sulphate (SDS)/45% Dimethyl Formamide was prepared by dissolving 20 g SDS in 100 ml of double-distilled water (DDW), and then adding 90 ml of Dimethyl Formamide to the solution. The pH was adjusted to 4.7 by glacial acetic acid, and DDW added up to a final volume of 200 ml. • 12. 5-Fluorouracil (5-FU) was supplied by Sigma (F-6627). Three working solutions were prepared at 19.5 μg/ml. 6.5 μg/ml and 1.95 μg/ml dissolved in 15% Ethanol/HBSS. […]",
  "data": [
    {"molecule": "O=c1[nH]cc(F)c(=O)[nH]1", "note": "[5-fluorouracil, reference compound]", "values": [
      {"measurement": "Mean OD", "setting": "A-2058, 0.195 μg/ml", "result": 0.1937},
      {"measurement": "Mean OD", "setting": "A-2058, 0.65 μg/ml", "result": 0.1832},
      {"measurement": "Mean OD", "setting": "A-2058, 1.95 μg/ml", "result": 0.1847},
      {"measurement": "inhibition at 0.195 µg/mL", "setting": "Homo sapiens, A2058, 24 h, A-2058, final conc. 0.195 μg/ml, 24 hr incubation, vs cells only", "result": 3.73, "unit": "%"},
      {"measurement": "inhibition at 0.65 µg/mL", "setting": "Homo sapiens, A2058, 24 h, A-2058, final conc. 0.65 μg/ml, 24 hr incubation, vs cells only", "result": 8.99, "unit": "%"},
      {"measurement": "inhibition at 1.95 µg/mL", "setting": "Homo sapiens, A2058, 24 h, A-2058, final conc. 1.95 μg/ml, 24 hr incubation, vs cells only", "result": 8.25, "unit": "%"}
    ]}
  ]
}
